Experimental data reported in patent US10577353B2, “5-(n-[6,5]-fused bicyclic aryl tetrahydroisoquinolin-6-yl) pyridin-3-yl acetic acid derivatives as inhibitors of human immunodeficiency virus replication” (priority 2015, dated 2020).

The compounds below were run on recombinant NL-RLuc virus (NL4-3 derived HIV) (assay: Inhibition of HIV replication (NL-RLuc virus in MT-2 cells, luciferase readout)). Conditions: Human immunodeficiency virus 1, NL43, MT2, 120 h.
Format: cell-based
Source text: Inhibition of HIV Replication:
A recombinant NL-RLuc proviral clone was constructed in which a section of the nef gene from NL4-3 was replaced with the Renilla Luciferase gene. This virus is fully infectious and can undergo multiple cycles of replication in cell culture. In addition, the luciferous reporter provides a simple and easy method for quantitating the extent of virus growth and consequently, the antiviral activity of test compounds. The plasmid pNLRLuc contains the proviral NL-Rluc DNA cloned into pUC 18 at the PvuII site. The NL-RLuc virus was prepared by transfection of 293T cells with the plasmid pNLRLuc. Transfections were performed using the LipofectAMINE PLUS kit from Invitrogen (Carlsbad, Calif.) according to the manufacturer and the virus generated was titered in MT-2 cells. For susceptibility analyses, the titrated virus was used to infect MT-2 cells in the presence of compound, and after 5 days of incubation, cells were processed and quantitated for virus growth by the amount of expressed luciferase. Assay media was RPMI 1640 supplemented with 10% heat inactivated fetal bovine serum (FBS), 100 units/ml penicillin G/100 units/ml streptomycin, 10 mM HEPES buffer pH 7.55 and 2 mM L-glutamine. The results from at least 2 experiments were used to calculate the EC50 values. Luciferase was quantitated using the Dual Luciferase kit from Promega (Madison, Wis.). Susceptibility of viruses to compounds was determined by incubation in the presence of serial dilutions of the compound. The 50% effective concentration (EC50) was calculated by using the exponential form of the median effect equation where (Fa)=1/[1+(ED50/drug conc.)^m] (Johnson V A, Byington R T. Infectivity Assay. In Techniques in HIV Research. ed. Aldovini A, Walker B D. 71-76. New York: Stockton Press. 1990).

Compared with `Cc1nc(C)c([C@H](OC(C)(C)C)C(=O)O)c(N2CCC(C)(C)CC2)c1-c1ccc2c(c1)CCN(c1nc3ncc(C(F)(F)F)cc3s1)C2` [Compound 1, (S)-2-(tert-butoxy)-2-(4-(4,4-dimethylpiperidin-1-yl)-2,6-dimethyl-5-(2-(6-(trifluoromethyl)thiazolo[4,5-b]pyridin-2-yl)-1,2,3,4-tetrahydroisoquinolin-6-yl)pyridin-3-yl)acetic acid], `Cc1nc(C)c([C@H](OC(C)(C)C)C(=O)O)c(N2CCC(C)(C)CC2)c1-c1ccc2c(c1)CCN(c1nc3ncccc3s1)C2` [Compound 10, (S)-2-(tert-butoxy)-2-(4-(4,4-dimethylpiperidin-1-yl)-2,6-dimethyl-5-(2-(thiazolo[4,5-b]pyridin-2-yl)-1,2,3,4-tetrahydroisoquinolin-6-yl)pyridin-3-yl)acetic acid] is 1.5-fold lower in EC50: 3 nM for the first, 2 nM for the second.

`Cc1nc(C)c([C@H](OC(C)(C)C)C(=O)O)c(N2CCC(C)(C)CC2)c1-c1ccc2c(c1)CCN(c1nc3cccnc3s1)C2` [Compound 2, (S)-2-(tert-butoxy)-2-(4-(4,4-dimethylpiperidin-1-yl)-2,6-dimethyl-5-(2-(thiazolo[5,4-b]pyridin-2-yl)-1,2,3,4-tetrahydroisoquinolin-6-yl)pyridin-3-yl)acetic acid] and `Cc1nc(C)c([C@H](OC(C)(C)C)C(=O)O)c(N2CCC(C)(C)CC2)c1-c1ccc2c(c1)CCN(c1nc3cnccc3s1)C2` [Compound 11, (S)-2-(tert-butoxy)-2-(4-(4,4-dimethylpiperidin-1-yl)-2,6-dimethyl-5-(2-(thiazolo[4,5-c]pyridin-2-yl)-1,2,3,4-tetrahydroisoquinolin-6-yl)pyridin-3-yl)acetic acid] are the same in EC50: 1 nM for the first, 1 nM for the second.

Going from `Cc1nc(C)c([C@H](OC(C)(C)C)C(=O)O)c(N2CCC(C)(C)CC2)c1-c1ccc2c(c1)CCN(c1nc3c(Cl)cncc3s1)C2` [Compound 3, (S)-2-(tert-butoxy)-2-(5-(2-(7-chlorothiazolo[5,4-c]pyridin-2-yl)-1,2,3,4-tetrahydroisoquinolin-6-yl)-4-(4,4-dimethylpiperidin-1-yl)-2,6-dimethylpyridin-3-yl)acetic acid] to `Cc1nc(C)c([C@H](OC(C)(C)C)C(=O)O)c(N2CCC(C)(C)CC2)c1-c1ccc2c(c1)CCN(c1nc3c(Cl)cccc3s1)C2` [Compound 7, (S)-2-(tert-butoxy)-2-(5-(2-(4-chlorobenzo[d]thiazol-2-yl)-1,2,3,4-tetrahydroisoquinolin-6-yl)-4-(4,4-dimethylpiperidin-1-yl)-2,6-dimethylpyridin-3-yl)acetic acid], the EC50 rises from 1 nM to 2 nM (2-fold). The first is the more potent here.

First: Cc1nc(C)c([C@H](OC(C)(C)C)C(=O)O)c(N2CCC(C)(C)CC2)c1-c1ccc2c(c1)CCN(c1nc3ccc(Cl)cc3s1)C2 [Compound 4, (S)-2-(tert-butoxy)-2-(5-(2-(6-chlorobenzo[d]thiazol-2-yl)-1,2,3,4-tetrahydroisoquinolin-6-yl)-4-(4,4-dimethylpiperidin-1-yl)-2,6-dimethylpyridin-3-yl)acetic acid]
Second: Cc1nc(C)c([C@H](OC(C)(C)C)C(=O)O)c(N2CCC(C)(C)CC2)c1-c1ccc2c(c1)CCN(c1nc3ccc(F)cc3s1)C2 [Compound 8, (S)-2-(tert-butoxy)-2-(4-(4,4-dimethylpiperidin-1-yl)-5-(2-(6-fluorobenzo[d]thiazol-2-yl)-1,2,3,4-tetrahydroisoquinolin-6-yl)-2,6-dimethylpyridin-3-yl)acetic acid]
The EC50 of the first is 3.8-fold higher: 19 nM for the first, 5 nM for the second. The second is the more potent here.

Compared with `Cc1nc(C)c([C@H](OC(C)(C)C)C(=O)O)c(N2CCC(C)(C)CC2)c1-c1ccc2c(c1)CCN(c1nc3cc(Cl)c(Cl)cc3s1)C2` [Compound 5, (S)-2-(tert-butoxy)-2-(5-(2-(5,6-dichlorobenzo[d]thiazol-2-yl)-1,2,3,4-tetrahydroisoquinolin-6-yl)-4-(4,4-dimethylpiperidin-1-yl)-2,6-dimethylpyridin-3-yl)acetic acid], `Cc1ccc2sc(N3CCc4cc(-c5c(C)nc(C)c([C@H](OC(C)(C)C)C(=O)O)c5N5CCC(C)(C)CC5)ccc4C3)nc2c1` [Compound 6, (S)-2-(tert-butoxy)-2-(4-(4,4-dimethylpiperidin-1-yl)-2,6-dimethyl-5-(2-(5-methylbenzo[d]thiazol-2-yl)-1,2,3,4-tetrahydroisoquinolin-6-yl)pyridin-3-yl)acetic acid] is 1.8-fold higher in EC50: 12 nM for the first, 22 nM for the second. The first is the more potent here.

First: Cc1ccc2nc(N3CCc4cc(-c5c(C)nc(C)c([C@H](OC(C)(C)C)C(=O)O)c5N5CCC(C)(C)CC5)ccc4C3)sc2c1 [Compound 9, (S)-2-(tert-butoxy)-2-(4-(4,4-dimethylpiperidin-1-yl)-2,6-dimethyl-5-(2-(6-methylbenzo[d]thiazol-2-yl)-1,2,3,4-tetrahydroisoquinolin-6-yl)pyridin-3-yl)acetic acid]
Second: COc1ccc2nc(N3CCc4cc(-c5c(C)nc(C)c([C@H](OC(C)(C)C)C(=O)O)c5N5CCC(C)(C)CC5)ccc4C3)sc2c1 [Compound 12, (S)-2-(tert-butoxy)-2-(4-(4,4-dimethylpiperidin-1-yl)-5-(2-(6-methoxybenzo[d]thiazol-2-yl)-1,2,3,4-tetrahydroisoquinolin-6-yl)-2,6-dimethylpyridin-3-yl)acetic acid]
The EC50 of the first is 2-fold higher: 8 nM for the first, 4 nM for the second. The second is the more potent here.

Compared with `Cc1nc(C)c([C@H](OC(C)(C)C)C(=O)O)c(N2CCC(C)(C)CC2)c1-c1ccc2c(c1)CCN(c1nc3ccccc3s1)C2` [Compound 13, (S)-2-(5-(2-(benzo[d]thiazol-2-yl)-1,2,3,4-tetrahydroisoquinolin-6-yl)-4-(4,4-dimethylpiperidin-1-yl)-2,6-dimethylpyridin-3-yl)-2-(tert-butoxy)acetic acid], `Cc1nc(C)c([C@H](OC(C)(C)C)C(=O)O)c(N2CCC(C)(C)CC2)c1-c1ccc2c(c1)CCN(c1nc3ccccc3n1C)C2` [Compound 17, (S)-2-(tert-butoxy)-2-(4-(4,4-dimethylpiperidin-1-yl)-2,6-dimethyl-5-(2-(1-methyl-1H-benzo[d]imidazol-2-yl)-1,2,3,4-tetrahydroisoquinolin-6-yl)pyridin-3-yl)acetic acid] is 3.1-fold higher in EC50: 7 nM for the first, 22 nM for the second.

Compared with `Cc1nc(C)c([C@H](OC(C)(C)C)C(=O)O)c(N2CCC(C)(C)CC2)c1-c1ccc2c(c1)CCN(c1ncnc3sccc13)C2` [Compound 14, (S)-2-(tert-butoxy)-2-(4-(4,4-dimethylpiperidin-1-yl)-2,6-dimethyl-5-(2-(thieno[2,3-d]pyrimidin-4-yl)-1,2,3,4-tetrahydroisoquinolin-6-yl)pyridin-3-yl)acetic acid], `Cc1nc(C)c([C@H](OC(C)(C)C)C(=O)O)c(N2CCC(C)(C)CC2)c1-c1ccc2c(c1)CCN(c1ncnc3[nH]ccc13)C2` [Compound 20, (S)-2-(5-(2-(7H-pyrrolo[2,3-d]pyrimidin-4-yl)-1,2,3,4-tetrahydroisoquinolin-6-yl)-4-(4,4-dimethylpiperidin-1-yl)-2,6-dimethylpyridin-3-yl)-2-(tert-butoxy)acetic acid] is 1.5-fold higher in EC50: 2 nM for the first, 3 nM for the second. The first is the more potent here.

`Cc1nc(C)c([C@H](OC(C)(C)C)C(=O)O)c(N2CCC(C)(C)CC2)c1-c1ccc2c(c1)CCN(c1ncnc3c(C)csc13)C2` [Compound 15, (S)-2-(tert-butoxy)-2-(4-(4,4-dimethylpiperidin-1-yl)-2,6-dimethyl-5-(2-(7-methylthieno[3,2-d]pyrimidin-4-yl)-1,2,3,4-tetrahydroisoquinolin-6-yl)pyridin-3-yl)acetic acid] and `Cc1nc(C)c([C@H](OC(C)(C)C)C(=O)O)c(N2CCC(C)(C)CC2)c1-c1ccc2c(c1)CCN(c1ncnc3c1cnn3C)C2` [Compound 16, (S)-2-(tert-butoxy)-2-(4-(4,4-dimethylpiperidin-1-yl)-2,6-dimethyl-5-(2-(1-methyl-1H-pyrazolo[3,4-d]pyrimidin-4-yl)-1,2,3,4-tetrahydroisoquinolin-6-yl)pyridin-3-yl)acetic acid] are the same in EC50: 2 nM for the first, 2 nM for the second.

First: Cc1nc(C)c([C@H](OC(C)(C)C)C(=O)O)c(N2CCC(C)(C)CC2)c1-c1ccc2c(c1)CCN(c1noc3ccccc13)C2 [Compound 18, (S)-2-(5-(2-(benzo[d]isoxazol-3-yl)-1,2,3,4-tetrahydroisoquinolin-6-yl)-4-(4,4-dimethylpiperidin-1-yl)-2,6-dimethylpyridin-3-yl)-2-(tert-butoxy)acetic acid]
Second: Cc1nc(N2CCc3cc(-c4c(C)nc(C)c([C@H](OC(C)(C)C)C(=O)O)c4N4CCC(C)(C)CC4)ccc3C2)c2cnn(C)c2n1 [Compound 19, (S)-2-(tert-butoxy)-2-(5-(2-(1,6-dimethyl-1H-pyrazolo[3,4-d]pyrimidin-4-yl)-1,2,3,4-tetrahydroisoquinolin-6-yl)-4-(4,4-dimethylpiperidin-1-yl)-2,6-dimethylpyridin-3-yl)acetic acid]
The EC50 of the first is 5-fold higher: 5 nM for the first, 1 nM for the second.

In the case of `Cc1nc(C)c([C@H](OC(C)(C)C)C(=O)O)c(N2CCC(C)(C)CC2)c1-c1ccc2c(c1)CCN(c1nc(O)c3[nH]cnc3n1)C2` [Compound 21, (S)-2-(tert-butoxy)-2-(4-(4,4-dimethylpiperidin-1-yl)-5-(2-(6-hydroxy-7H-purin-2-yl)-1,2,3,4-tetrahydroisoquinolin-6-yl)-2,6-dimethylpyridin-3-yl)acetic acid], the EC50 is reported as 5990 nM.
